Source: paper PMC12123601, “Light-Induced, Lysine-Targeting Irreversible Covalent Inhibition of the Human Oxygen Sensing Hydroxylase Factor Inhibiting HIF (FIH)” (Journal of the American Chemical Society, 2025)

Molecular target: T1, PHD2 (Homo sapiens, UniProt Q9GZT9)
T1 construct: endogenous in cells; host or cells: Hep3B (SCSP-5045)
Assay: CETSA in Hep3B cells detecting PHD2 engagement
Assay type: cell-based
Details: 50 μM, 12-48 h after 30 min light activation
Protocol: To investigate potential cellular target engagement of NBA-ZG-2291 with FIH, we performed a time-dependent cellular thermal shift assay (CETSA) using Hep3B cells. The results imply that, after 30 min of light activation (365 nm, 16 W), NBA-ZG-2291 effectively stabilizes FIH with a ΔT m of about 9 °C after incubation for 12–48 h (Figure A), indicating sustained engagement with FIH. […] We also performed Western blotting to examine the protein levels of both HIF-1α and HIF-2α in control and NBA-ZG-2291-treated Hep3B cells.
Figure S11. The CETSA assay detecting PHD2 engagement was carried out with Hep3B cells grown in the presence of NBA-ZG-2291 (50 µM) for 12-48 h after 30 minutes of light activation (365 nm, 16W). The intensity of the bands for grayscale analysis was referenced to the starting temperature (37 °C). α-Actinin was the sample loading control. n = 2; mean ± SD. The uncropped blot is […]
(1 picture or pasted object on this page, not shown here)
3.4 Intact protein mass spectrometry […]
The process of customizing non-standard residues (NBA-ZG-2291 modified Lys106) in the amber14sb force field involved the following steps: First, the molecular structure of NBA-ZG-2291 was obtained and its topology was generated. […] The molecular charges were then calculated using the RESP method, and the topology file was updated with these charge values. […]

T1 sequence (Q9GZT9 whole entry): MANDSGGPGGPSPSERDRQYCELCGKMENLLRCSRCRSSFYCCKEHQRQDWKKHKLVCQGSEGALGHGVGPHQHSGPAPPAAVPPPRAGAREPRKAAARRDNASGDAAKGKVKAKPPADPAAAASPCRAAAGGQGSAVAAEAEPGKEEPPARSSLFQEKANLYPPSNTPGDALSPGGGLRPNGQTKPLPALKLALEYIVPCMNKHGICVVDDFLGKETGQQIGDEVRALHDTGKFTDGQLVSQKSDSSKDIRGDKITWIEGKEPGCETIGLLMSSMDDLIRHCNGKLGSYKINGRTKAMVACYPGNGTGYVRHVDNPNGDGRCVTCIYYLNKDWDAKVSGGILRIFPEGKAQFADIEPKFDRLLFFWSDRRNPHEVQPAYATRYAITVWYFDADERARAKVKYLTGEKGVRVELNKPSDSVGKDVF

O=C(O)CNC(=O)c1ncc(-c2cc(-c3ccc(CO)c([N+](=O)[O-])c3)no2)cc1O [NBA-ZG-2291]
Effect on stability of PHD2 in cells (CETSA): not observed to affect the stability of PHD2
